Measurements published in US5364844A, “Renin-inhibitory oligopeptides, their preparation and use” (Sankyo Company, Limited, priority 1988, dated 1994).

Molecular target: T1, human renin (Homo sapiens, UniProt P00797)
T1 sequence (P00797 67-406): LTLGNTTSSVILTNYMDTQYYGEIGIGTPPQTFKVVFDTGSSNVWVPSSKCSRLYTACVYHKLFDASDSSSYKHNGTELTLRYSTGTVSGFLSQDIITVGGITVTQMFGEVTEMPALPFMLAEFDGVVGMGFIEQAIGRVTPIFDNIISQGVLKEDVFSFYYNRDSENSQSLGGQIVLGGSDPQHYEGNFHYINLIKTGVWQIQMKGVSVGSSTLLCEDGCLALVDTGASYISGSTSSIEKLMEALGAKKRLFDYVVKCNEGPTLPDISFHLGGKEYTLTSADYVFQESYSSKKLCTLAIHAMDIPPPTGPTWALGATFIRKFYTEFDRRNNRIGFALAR
Assay: Inhibition of human renin activity (procedure of Kokubu et al.)
Type: biochemical
Conditions: sheep angiotensinogen, pH 7.3, 10 minutes at 37° C.; mean of 3 or 4 experiments
Protocol: The ability of various compounds of the invention to inhibit the activity of renin was determined according to the following method, which follows essentially the procedure of Kokubu et al. [Hypertension, 5, 191-197 (1983)].
Specifically, each test compound was dissolved in 60% v/v aqueous ethanol. Human renin activity in the presence and absence of each compound was measured using sheep angiotensinogen. The total volume of 1 ml of assay mixture contained 0.1 mole/liter phosphate buffer (pH 7.3), human renin (equivalent to 0.5 ng angiotensin I per ml per minute), sheep angiotensinogen (equivalent to 200 ng angiotensin I), […], 6% v/v ethanol and angiotensinase inhibitors (10 mmole/liter sodium ethylenediaminetetraacetate and 3.4 mmole/liter 8-hydroxyquinoline). The mixture was allowed to react for 10 minutes at 37° C., and then the reaction was stopped by placing the reaction tube in a boiling water bath for 5 minutes. The mixture was then centrifuged and the supernatant (0.05-0.1 ml) was used to assay remaining angiotensin I.
An identical experiment was carried out, as a control, except that the test compound was omitted. From the values obtained were calculated the % inhibition of renin activity achieved by each test compound. The results are shown in the following Table 9, in which the compounds of the invention are identified by the numbers of the Examples given hereafter in which are described their preparation. The values given are the mean of 3 or 4 experiments.

First: CC[C@H](C)CNC(=O)[C@@H](C[C@H](O)[C@H](CC1CCCCC1)NC(=O)[C@H](Cc1cscn1)NC(=O)[C@H](Cc1ccccc1)NC(=O)CN1CCOCC1)C(C)(C)O [Example 3, (2S, 4S, 5S)-S-{N-[N-Morpholinoacetyl-L-phenylalanyl]-3-(4-thiazolyl)-L-alanyl}amino-6-cyclohexyl-4-hydroxy-2-(1-hydroxy-1-methylethyl)-N-[2(S)-methylbutyl]hexanamide]
Second: CC[C@H](C)CNC(=O)[C@@H](C[C@H](O)[C@H](CC1CCCCC1)NC(=O)[C@H](Cc1cscn1)NC(=O)[C@H](Cc1cccc2ccccc12)NC(=O)CN1CCOCC1)C(C)(C)O [Example 2, (2S, 4S, 5S)-5-{N-[N-Morpholinoacetyl-3-(1-naphthyl)-L-alanyl]-3-(4-thiazolyl)-L-alanyl}amino-6-cyclohexyl-4-hydroxy-2-(1-hydroxy-1-methylethyl)-N-[2(S)-methylbutyl]hexanamide]
The “Inhibitory Activity (%) Against Human Renin” value of the first is higher: 96.7% for the first, 96.3% for the second.

Compared with `CC[C@H](C)CNC(=O)[C@@H](C[C@H](O)[C@H](CC1CCCCC1)NC(=O)[C@H](Cc1cscn1)NC(=O)[C@@H](CC(=O)N1CCOCC1)Cc1cccc2ccccc12)C(C)(C)O` [Example 4, (2S, 4S, 5S)-5-{N-[2(R)-(1-Naphthylmethyl)-3-(morpholinocarbonyl)propionyl]-3-(4-thiazolyl)-L-alanyl}amino-6-cyclohexyl-4-hydroxy-2-(1-hydroxy-1-methylethyl)-N-[2(S)-methylbutyl]hexanamide], `CC[C@H](C)CNC(=O)[C@@H](C[C@H](O)[C@H](CC1CCCCC1)NC(=O)[C@H](Cc1cscn1)NC(=O)[C@@H](CC(=O)N1CCOCC1)Cc1ccccc1)C(C)(C)O` [Example 5, (2S, 4S, 5S)-5-{N-[2(R)-Benzyl-3-(morpholinocarbonyl)propionyl]-3-(4-thiazolyl)-L-alanyl}amino-6-cyclohexyl-4-hydroxy-2-(1-hydroxy-1-methylethyl)-N-[2 (S)-methylbutyl]hexanamide] is lower in “Inhibitory Activity (%) Against Human Renin” value: 96.8% for the first, 92.2% for the second.

Compared with `CCC(C)CNC(=O)[C@@H](C[C@H](O)[C@H](CC(C)C)NC(=O)[C@H](Cc1cscn1)NC(=O)[C@@H](CC(=O)N(C)C1CCCCC1)Cc1cccc2ccccc12)C(C)(C)O` (mixture of isomers) [Example 8, (2S, 4S, 5S)-5-{N-[2(R)-(1-Naphthylmethyl)-3-(N-cyclohexyl-N-methylaminocarbonyl)propionyl]-3-(4-thiazolyl)-L-alanyl}amino-4-hydroxy-2-(1-hydroxy-1-methylethyl)-7-methyl-N-[2-(RS)-methylbutyl]octanamide], `CCC(C)CNC(=O)[C@@H](C[C@H](O)[C@H](CC(C)C)NC(=O)[C@H](Cc1cscn1)NC(=O)[C@H](Cc1cccc2ccccc12)NC(=O)OC(C)(C)C)C(C)(C)O` (mixture of isomers) [Example 7, (2S, 4S, 5S)-5-{N-[N-(t-Butoxycarbonyl)-3-(1-naphthyl)-L-alanyl]-3-(4-thiazolyl)-L-alanyl}amino-4-hydroxy-2-(1-hydroxy-1-methylethyl)-7-methyl-N-[2(RS)-methylbutyl]octanamide] is higher in “Inhibitory Activity (%) Against Human Renin” value: 97.4% for the first, 98.2% for the second.

In the case of `CNC(=O)[C@@H](C[C@H](O)[C@H](CC1CCCCC1)NC(=O)[C@H](Cc1cscn1)NC(=O)[C@@H](CC(=O)N1CCOCC1)Cc1ccccc1)C(C)(C)O` [Example 9], the “Inhibitory Activity (%) Against Human Renin” value is reported as 90.9%.
